Reference: PubChem BioAssay (NCI)
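Protocol summary: plate cells (96-well), add compound at 5 concentrations, incubate 48 h, interpolate endpoints linearly. Here, GI50 denotes the concentration required for 50% inhibition of growth. TGI: total growth inhibition.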

Columns and labels:
Experiment in all cases: NCI-60 cell line screen, 48 h
SNB-75 CNS = test system: SNB-75 CNS
CCRF-CEM leukemia = test system: CCRF-CEM leukemia
HCT-15 colon = test system: HCT-15 colon
SF-295 CNS = test system: SF-295 CNS
UACC-62 melanoma = test system: UACC-62 melanoma
A549 NSCLC = test system: A549 NSCLC
UO-31 renal = test system: UO-31 renal
786-0 renal = test system: 786-0 renal
SK-OV-3 ovarian = test system: SK-OV-3 ovarian
MDA-MB-231 breast = test system: MDA-MB-231 breast
U251 CNS = test system: U251 CNS
NCI-H460 lung = test system: NCI-H460 lung
NCI/ADR-RES ovarian = test system: NCI/ADR-RES ovarian
RXF 393 renal = test system: RXF 393 renal
T-47D breast = test system: T-47D breast
PC-3 prostate = test system: PC-3 prostate
SK-MEL-2 melanoma = test system: SK-MEL-2 melanoma
MDA-MB-435 = test system: MDA-MB-435
NCI-H522 lung = test system: NCI-H522 lung
IGROV1 ovarian = test system: IGROV1 ovarian
MOLT-4 leukemia = test system: MOLT-4 leukemia
SN12C renal = test system: SN12C renal
BT-549 breast = test system: BT-549 breast
SR leukemia = test system: SR leukemia
CAKI-1 renal = test system: CAKI-1 renal
HT29 colon = test system: HT29 colon
SF-539 CNS = test system: SF-539 CNS
RPMI-8226 leukemia = test system: RPMI-8226 leukemia
K-562 leukemia = test system: K-562 leukemia
SF-268 CNS = test system: SF-268 CNS
HCT-116 colon = test system: HCT-116 colon
M14 melanoma = test system: M14 melanoma
SNB-19 CNS = test system: SNB-19 CNS
SW-620 colon = test system: SW-620 colon
HCC-2998 colon = test system: HCC-2998 colon
COLO 205 colon = test system: COLO 205 colon
MALME-3M melanoma = test system: MALME-3M melanoma
DU-145 prostate = test system: DU-145 prostate
HOP-62 NSCLC = test system: HOP-62 NSCLC
TK-10 renal = test system: TK-10 renal
UACC-257 melanoma = test system: UACC-257 melanoma
OVCAR-5 ovarian = test system: OVCAR-5 ovarian
OVCAR-3 ovarian = test system: OVCAR-3 ovarian
ACHN renal = test system: ACHN renal
EKVX NSCLC = test system: EKVX NSCLC
KM12 colon = test system: KM12 colon
LOX IMVI melanoma = test system: LOX IMVI melanoma
NCI-H23 lung = test system: NCI-H23 lung
SK-MEL-28 melanoma = test system: SK-MEL-28 melanoma
OVCAR-4 ovarian = test system: OVCAR-4 ovarian
OVCAR-8 ovarian = test system: OVCAR-8 ovarian
NCI-H226 lung = test system: NCI-H226 lung
SK-MEL-5 melanoma = test system: SK-MEL-5 melanoma

`Cc1nn2c(/C=N/N=C(N)N)c(-c3ccc(Cl)c([N+](=O)[O-])c3)nc2s1` was tested, and the GI50 (SNB-75 CNS) was 1.36 µM, the TGI (SNB-75 CNS) was 2.94 µM and the GI50 (CCRF-CEM leukemia) was 0.368 µM. The TGI (CCRF-CEM leukemia) was 0.751 µM, the GI50 (HCT-15 colon) was 1.43 µM and the TGI (HCT-15 colon) was 3.72 µM. For the same compound, the GI50 (SF-295 CNS) was 0.615 µM, the TGI (SF-295 CNS) was 1.94 µM and the GI50 (UACC-62 melanoma) was 2.06 µM. For the same compound, the TGI (UACC-62 melanoma) was 3.58 µM, the GI50 (A549 NSCLC) was 4.96 µM and the TGI (A549 NSCLC) was 17.5 µM. The GI50 (UO-31 renal) was 20.9 µM, the TGI (UO-31 renal) was 41.1 µM and the GI50 (786-0 renal) was 0.249 µM. It also gave a TGI (786-0 renal) of 0.442 µM, a GI50 (SK-OV-3 ovarian) of 2.85 µM and a TGI (SK-OV-3 ovarian) of 6.75 µM. For the same compound, the GI50 (MDA-MB-231 breast) was 2.03 µM, the TGI (MDA-MB-231 breast) was 3.66 µM and the GI50 (U251 CNS) was 0.285 µM. It also gave a TGI (U251 CNS) of 0.597 µM, a GI50 (NCI-H460 lung) of 1.18 µM and a GI50 (NCI/ADR-RES ovarian) of 3.61 µM. It also gave a TGI (NCI/ADR-RES ovarian) of 15 µM, a GI50 (RXF 393 renal) of 3.4 µM and a GI50 (T-47D breast) of 0.481 µM. The GI50 (PC-3 prostate) was 1.14 µM, the TGI (PC-3 prostate) was 2.83 µM and the GI50 (SK-MEL-2 melanoma) was 2.53 µM. The TGI (SK-MEL-2 melanoma) was 6.46 µM, the GI50 (MDA-MB-435) was 0.204 µM and the TGI (MDA-MB-435) was 0.363 µM. For the same compound, the GI50 (NCI-H522 lung) was 7.04 µM, the TGI (NCI-H522 lung) was 46.7 µM and the GI50 (IGROV1 ovarian) was 6.2 µM. For the same compound, the TGI (IGROV1 ovarian) was 22.1 µM, the GI50 (MOLT-4 leukemia) was 2.88 µM and the TGI (MOLT-4 leukemia) was 5.61 µM. The GI50 (SN12C renal) was 0.763 µM, the TGI (SN12C renal) was 1.58 µM and the GI50 (BT-549 breast) was 21.6 µM. The TGI (BT-549 breast) was 48.3 µM, the GI50 (SR leukemia) was 2.53 µM and the TGI (SR leukemia) was 4.9 µM. It also gave a GI50 (CAKI-1 renal) of 1.47 µM, a TGI (CAKI-1 renal) of 2.85 µM and a GI50 (HT29 colon) of 0.236 µM. It also gave a GI50 (SF-539 CNS) of 2.07 µM, a TGI (SF-539 CNS) of 3.63 µM and a GI50 (RPMI-8226 leukemia) of 0.791 µM. For the same compound, the TGI (RPMI-8226 leukemia) was 1.76 µM, the GI50 (K-562 leukemia) was 2.98 µM and the TGI (K-562 leukemia) was 9.63 µM. The GI50 (SF-268 CNS) was 1.22 µM, the GI50 (HCT-116 colon) was 0.192 µM and the TGI (HCT-116 colon) was 0.374 µM. For the same compound, the GI50 (M14 melanoma) was 1.72 µM, the TGI (M14 melanoma) was 3.3 µM and the GI50 (SNB-19 CNS) was 0.543 µM. The TGI (SNB-19 CNS) was greater than 100 µM, the GI50 (SW-620 colon) was 0.444 µM and the TGI (SW-620 colon) was 1.72 µM. It also gave a GI50 (HCC-2998 colon) of 1.42 µM, a TGI (HCC-2998 colon) of 2.91 µM and a GI50 (COLO 205 colon) of 0.457 µM. The TGI (COLO 205 colon) was 61.7 µM, the GI50 (MALME-3M melanoma) was 2.44 µM and the TGI (MALME-3M melanoma) was 4.14 µM. For the same compound, the GI50 (DU-145 prostate) was 2.32 µM, the TGI (DU-145 prostate) was 4.98 µM and the GI50 (HOP-62 NSCLC) was 0.262 µM. The TGI (HOP-62 NSCLC) was 0.529 µM, the GI50 (TK-10 renal) was 2.06 µM and the TGI (TK-10 renal) was 3.56 µM. For the same compound, the GI50 (UACC-257 melanoma) was 6.14 µM, the TGI (UACC-257 melanoma) was 11.7 µM and the GI50 (OVCAR-5 ovarian) was 1.42 µM. For the same compound, the TGI (OVCAR-5 ovarian) was 3.15 µM, the GI50 (OVCAR-3 ovarian) was 0.488 µM and the TGI (OVCAR-3 ovarian) was 1.52 µM. For the same compound, the GI50 (ACHN renal) was 0.966 µM, the TGI (ACHN renal) was 2.58 µM and the GI50 (EKVX NSCLC) was 25.3 µM. It also gave a TGI (EKVX NSCLC) of 69.6 µM.

For `CC12CCC([C@H](Nc3cc(C(F)(F)F)cc(C(F)(F)F)c3)C1=O)C2(C)C` (stereo not given in full), the TGI (KM12 colon) was greater than 100 µM, the TGI (LOX IMVI melanoma) was greater than 100 µM and the TGI (HCT-15 colon) was greater than 100 µM. The TGI (SF-295 CNS) was greater than 100 µM, the TGI (A549 NSCLC) was greater than 100 µM and the TGI (UO-31 renal) was greater than 100 µM. The TGI (786-0 renal) was greater than 100 µM, the TGI (SK-OV-3 ovarian) was greater than 100 µM and the TGI (MDA-MB-231 breast) was greater than 100 µM. It also gave a TGI (NCI/ADR-RES ovarian) greater than 100 µM, a TGI (RXF 393 renal) of 28 µM and a TGI (T-47D breast) greater than 100 µM. The TGI (PC-3 prostate) was greater than 100 µM, the TGI (SK-MEL-2 melanoma) was greater than 100 µM and the TGI (MDA-MB-435) was greater than 100 µM. The TGI (NCI-H23 lung) was greater than 100 µM, the TGI (IGROV1 ovarian) was greater than 100 µM and the TGI (MOLT-4 leukemia) was greater than 100 µM. It also gave a TGI (SK-MEL-28 melanoma) greater than 100 µM, a TGI (BT-549 breast) greater than 100 µM and a TGI (SR leukemia) greater than 100 µM. It also gave a TGI (CAKI-1 renal) greater than 100 µM, a TGI (OVCAR-4 ovarian) greater than 100 µM and a TGI (HT29 colon) greater than 100 µM. For the same compound, the TGI (SF-539 CNS) was greater than 100 µM, the TGI (K-562 leukemia) was greater than 100 µM and the TGI (SF-268 CNS) was greater than 100 µM. The TGI (HCT-116 colon) was greater than 100 µM, the TGI (OVCAR-8 ovarian) was greater than 100 µM and the TGI (M14 melanoma) was greater than 100 µM. It also gave a TGI (SNB-19 CNS) greater than 100 µM, a TGI (SW-620 colon) greater than 100 µM and a TGI (HCC-2998 colon) greater than 100 µM. It also gave a TGI (COLO 205 colon) greater than 100 µM, a TGI (MALME-3M melanoma) greater than 100 µM and a TGI (DU-145 prostate) greater than 100 µM. The TGI (HOP-62 NSCLC) was greater than 100 µM, the TGI (TK-10 renal) was greater than 100 µM and the TGI (UACC-257 melanoma) was greater than 100 µM. The TGI (NCI-H226 lung) was greater than 100 µM, the TGI (SK-MEL-5 melanoma) was greater than 100 µM and the TGI (OVCAR-5 ovarian) was greater than 100 µM. For the same compound, the TGI (OVCAR-3 ovarian) was greater than 100 µM, the TGI (ACHN renal) was greater than 100 µM and the TGI (EKVX NSCLC) was greater than 100 µM.
